The NIST ThermoML archive (doi:10.1021/je1005533)
± gives the expanded uncertainty stated by the source.

Legend:
[1] = refractive index (other wavelength) (dimensionless); xn = mol fraction of the nth substance listed; details: 101.3 kPa, Liquid, Wavelength=632.8 nm, Standard Abbe refractometry
[2] = refractive index (other wavelength) (dimensionless); details: 101.3 kPa, Liquid, Wavelength=632.8 nm, Standard Abbe refractometry

What does the source list for `COC(=O)OC` [dimethyl carbonate] + CCCCCCCCCCCCCCCC?
refractive index ([1]; 308.25 K, x1 = 1): 1.3607 ± 0.0007; refractive index ([1]; 309.26 K, x1 = 1): 1.3602 ± 0.0007; refractive index ([1]; 310.32 K, x1 = 1): 1.3597 ± 0.0007; refractive index ([1]; 311.36 K, x1 = 1): 1.3592 ± 0.0007; refractive index ([1]; 312.44 K, x1 = 1): 1.3587 ± 0.0007; refractive index ([1]; 313.49 K, x1 = 1): 1.3582 ± 0.0007; refractive index ([1]; 314.53 K, x1 = 1): 1.3577 ± 0.0007; refractive index ([1]; 315.56 K, x1 = 1): 1.3572 ± 0.0007; refractive index ([1]; 316.66 K, x1 = 1): 1.3567 ± 0.0007; refractive index ([1]; 317.67 K, x1 = 1): 1.3562 ± 0.0007; refractive index ([1]; 318.72 K, x1 = 1): 1.3557 ± 0.0007

With `COC(=O)OC` [dimethyl carbonate] + CCCCCCCCCCCCCCCCCC as the molecule, how does the refractive index ([1]; 327.67 K, x1 = 1) read?
The refractive index was 1.3514 ± 0.0007.

Which refractive index ([1]; 327.67 K, x2 = 0) does the source give for `CCCCCCCCCCCCCCCCCC` [octadecane] + COC(=O)OC here?
Its refractive index is 1.4231 ± 0.0007.

And the refractive index ([1]; 327.67 K, x2 = 0.099)?
The refractive index was 1.4203 ± 0.0007.

What about the refractive index ([1]; 327.67 K, x2 = 0.202) of the same molecule?
The refractive index was 1.4169 ± 0.0007.

And the refractive index ([1]; 327.67 K, x2 = 0.299)?
Its refractive index is 1.4132 ± 0.0007.

And the refractive index ([1]; 327.67 K, x2 = 0.399)?
Its refractive index is 1.4089 ± 0.0007.

What about the refractive index ([1]; 327.67 K, x2 = 0.509) of the same molecule?
Its refractive index is 1.4034 ± 0.0007.

What about the refractive index ([1]; 327.67 K, x2 = 0.601) of the same molecule?
Its refractive index is 1.3979 ± 0.0007.

And the refractive index ([1]; 327.67 K, x2 = 0.701)?
The refractive index was 1.3907 ± 0.0007.

And the refractive index ([1]; 327.67 K, x2 = 0.807)?
The refractive index was 1.3806 ± 0.0007.

And the refractive index ([1]; 327.67 K, x2 = 0.902)?
The refractive index was 1.3685 ± 0.0007.

Which refractive index ([2]; 308.25 K) does the source give for `COC(=O)OC` [dimethyl carbonate] here?
The refractive index was 1.3607 ± 0.0006.

What about the refractive index ([2]; 309.26 K) of the same molecule?
The refractive index was 1.3602 ± 0.0006.

And the refractive index ([2]; 310.32 K)?
The refractive index was 1.3597 ± 0.0006.

And the refractive index ([2]; 311.36 K)?
Its refractive index is 1.3592 ± 0.0006.

What about the refractive index ([2]; 312.44 K) of the same molecule?
The refractive index was 1.3587 ± 0.0006.

What about the refractive index ([2]; 313.49 K) of the same molecule?
Its refractive index is 1.3582 ± 0.0006.

What about the refractive index ([2]; 314.53 K) of the same molecule?
Its refractive index is 1.3577 ± 0.0006.

And the refractive index ([2]; 315.56 K)?
The refractive index was 1.3572 ± 0.0006.

And the refractive index ([2]; 316.66 K)?
The refractive index was 1.3567 ± 0.0006.

And the refractive index ([2]; 317.67 K)?
Its refractive index is 1.3562 ± 0.0006.

What about the refractive index ([2]; 318.72 K) of the same molecule?
Its refractive index is 1.3557 ± 0.0006.

And the refractive index ([2]; 327.67 K)?
Its refractive index is 1.3514 ± 0.0006.

Which refractive index ([2]; 327.67 K) does the source give for `CCCCCCCCCCCCCCCCCC` [octadecane] here?
Its refractive index is 1.4231 ± 0.0007.

Which refractive index ([2]; 308.21 K) does the source give for `CCCCCCCCCCCCCCCC` [hexadecane] here?
The refractive index was 1.427 ± 0.0007.

What about the refractive index ([2]; 309.24 K) of the same molecule?
The refractive index was 1.4265 ± 0.0007.

What about the refractive index ([2]; 310.21 K) of the same molecule?
Its refractive index is 1.4261 ± 0.0007.

What about the refractive index ([2]; 311.24 K) of the same molecule?
Its refractive index is 1.4256 ± 0.0007.

And the refractive index ([2]; 312.3 K)?
Its refractive index is 1.4252 ± 0.0007.

What about the refractive index ([2]; 313.34 K) of the same molecule?
The refractive index was 1.4248 ± 0.0007.

And the refractive index ([2]; 314.44 K)?
The refractive index was 1.4244 ± 0.0007.

What about the refractive index ([2]; 315.54 K) of the same molecule?
The refractive index was 1.4239 ± 0.0007.

What about the refractive index ([2]; 316.55 K) of the same molecule?
Its refractive index is 1.4235 ± 0.0007.

What about the refractive index ([2]; 317.56 K) of the same molecule?
Its refractive index is 1.4231 ± 0.0007.

And the refractive index ([2]; 318.61 K)?
Its refractive index is 1.4226 ± 0.0007.
